How the values were obtained:
Format in all cases: cell-based, Streptococcus mutans
S. mutans = test: Growth inhibition of S. mutans in culture by neat solutions of xylitol and/or arginine; settings: 24 hours after administration of neat solutions, absence of added sucrose
Procedure: The ability of xylitol to inhibit the growth of S. mutans is tested in combination with arginine in culture. Percent growth inhibition is measured at 24 hours after administration of the neat solutions listed in the below table.
Results in Table 2 are obtained in the absence of added sucrose.

S. mutans biofilm [1] = test: pH drop of S. mutans biofilm from glycolysis (total AUC of delta pH); settings: for Total AUC of Δ pH: after 24 hours of exposure and addition of growth media, lower AUC = less pH reduction; for Δ (vs control) of total AUC of Δ pH: difference from control (no arginine or xylitol) AUC 29.5
Description: Such drops in pH can be harmful to the health of the oral cavity.

planktonic S. mutans = test: Minimum inhibitory concentration of xylitol, planktonic S. mutans growth (OD 610 nm); settings: for growth of S. mutans, optical density (OD 610 nm), mean: 24 hours of exposure
Procedure: Determining Minimum Inhibitory Concentration (MIC) of Xylitol: In a separate experiment, simple solutions with only xylitol at varying concentrations, tested in combination with a control, are also tested to determine the minimum inhibitor concentration of xylitol needed to inhibit planktonic S. mutans growth in culture.

S. mutans biofilm [2] = test: S. mutans biofilm formation by crystal violet staining (OD 590 nm); settings: for S. mutans biofilm formation, crystal violet staining (OD 590 nm), mean: 24 hours of exposure
Procedure: Determining Biofilm Formation with varying amounts of Xylitol: In a separate experiment, simple solutions with only xylitol at varying concentrations, tested in combination with a control, are also tested to determine the minimum amount of xylitol needed to prevent S. mutans biofilm accretion in culture. It is determined that at least 5% xylitol is necessary to inhibit biofilm accretion in culture after 24 hours of exposure.

[3] = in culture after 24 hours of exposure

N=C(N)NCCC[C@H](N)C(=O)O [1.5% arginine, arginine]
% growth inhibition relative to control (S. mutans): 4.1% | Total AUC of Δ pH (S. mutans biofilm [1]): 28.9 | Δ (vs control) of total AUC of Δ pH (S. mutans biofilm [1]): 0.6

OC[C@@H](O)[C@H](O)[C@@H](O)CO [Xylitol]
% growth inhibition relative to control (S. mutans; listed as 1% xylitol): 17.9% | % growth inhibition relative to control (S. mutans; listed as 5% xylitol): 40.3% | % growth inhibition relative to control (S. mutans; listed as 10% xylitol): 45.6% | minimum inhibitory concentration of xylitol needed to inhibit planktonic S. mutans growth (planktonic S. mutans; [3]): at least 10% | growth of S. mutans, optical density (OD 610 nm), mean (planktonic S. mutans; xylitol 0.15625%): 0.256 | growth of S. mutans, optical density (OD 610 nm), mean (planktonic S. mutans; xylitol 0.3125%): 0.268 | growth of S. mutans, optical density (OD 610 nm), mean (planktonic S. mutans; xylitol 0.625%): 0.241 | growth of S. mutans, optical density (OD 610 nm), mean (planktonic S. mutans; xylitol 1.25%): 0.188 | growth of S. mutans, optical density (OD 610 nm), mean (planktonic S. mutans; xylitol 2.5%): 0.165 | growth of S. mutans, optical density (OD 610 nm), mean (planktonic S. mutans; xylitol 5%): 0.114 | growth of S. mutans, optical density (OD 610 nm), mean (planktonic S. mutans; xylitol 10%): 0.097 | growth of S. mutans, optical density (OD 610 nm), mean (planktonic S. mutans; xylitol 20%): 0.089 | growth of S. mutans, optical density (OD 610 nm), mean (planktonic S. mutans; xylitol 40%): 0.071 | minimum amount of xylitol needed to prevent S. mutans biofilm accretion (S. mutans biofilm [2]; [3]): at least 5% | S. mutans biofilm formation, crystal violet staining (OD 590 nm), mean (S. mutans biofilm [2]; xylitol 0.15625%): 0.327 | S. mutans biofilm formation, crystal violet staining (OD 590 nm), mean (S. mutans biofilm [2]; xylitol 0.3125%): 0.338 | S. mutans biofilm formation, crystal violet staining (OD 590 nm), mean (S. mutans biofilm [2]; xylitol 0.625%): 0.301 | S. mutans biofilm formation, crystal violet staining (OD 590 nm), mean (S. mutans biofilm [2]; xylitol 1.25%): 0.254 | S. mutans biofilm formation, crystal violet staining (OD 590 nm), mean (S. mutans biofilm [2]; xylitol 2.5%): 0.221 | S. mutans biofilm formation, crystal violet staining (OD 590 nm), mean (S. mutans biofilm [2]; xylitol 5%): 0.136 | S. mutans biofilm formation, crystal violet staining (OD 590 nm), mean (S. mutans biofilm [2]; xylitol 10%): 0.122 | S. mutans biofilm formation, crystal violet staining (OD 590 nm), mean (S. mutans biofilm [2]; xylitol 20%): 0.123 | S. mutans biofilm formation, crystal violet staining (OD 590 nm), mean (S. mutans biofilm [2]; xylitol 40%): 0.109 | Total AUC of Δ pH (S. mutans biofilm [1]; listed as 1% xylitol): 27.8 | Total AUC of Δ pH (S. mutans biofilm [1]; listed as 5% xylitol): 25.3 | Total AUC of Δ pH (S. mutans biofilm [1]; listed as 10% xylitol): 24.0 | Δ (vs control) of total AUC of Δ pH (S. mutans biofilm [1]; listed as 1% xylitol): 1.7 | Δ (vs control) of total AUC of Δ pH (S. mutans biofilm [1]; listed as 5% xylitol): 4.2 | Δ (vs control) of total AUC of Δ pH (S. mutans biofilm [1]; listed as 10% xylitol): 5.5
